US5573908A, “Adrenergic receptor as a proto-oncogene” (Duke University, priority 1993, dated 1996)
Where “and” joins values, the source holds several entries; their conditions need not be identical. Equal entries are not always repeated.

What was measured:
[1] = test system: NIH 3T3 fibroblasts transfected with α1B ADR; assay: Focus formation in NIH 3T3 fibroblasts transfected with α1B-ADR c-DNA; assay type: cell-based; settings: NIH 3T3 transfected with α1B ADR; 10 μM NE supplemented daily, 5% FBS (Table 1)
α1B ADR mutant [2] = target: T1, α1B ADR mutant (Mesocricetus auratus, UniProt P18841, A293L/K290H/R288K); assay: Ligand binding on membranes of RAT-1 fibroblast cell lines expressing the α1B ADR mutant; set-up: species or system hamster; settings: competition with 100 pM [125I] HEAT; membranes, two clones; read-out: NE Ki
T1 construct: expressed in transfected cells; host or cells: RAT-1 fibroblasts (vector pZIP-NeoSV(X)1), focus-derived, G418-selected lines
T1 sequence (P18841 1-515 R288K/K290H/A293L): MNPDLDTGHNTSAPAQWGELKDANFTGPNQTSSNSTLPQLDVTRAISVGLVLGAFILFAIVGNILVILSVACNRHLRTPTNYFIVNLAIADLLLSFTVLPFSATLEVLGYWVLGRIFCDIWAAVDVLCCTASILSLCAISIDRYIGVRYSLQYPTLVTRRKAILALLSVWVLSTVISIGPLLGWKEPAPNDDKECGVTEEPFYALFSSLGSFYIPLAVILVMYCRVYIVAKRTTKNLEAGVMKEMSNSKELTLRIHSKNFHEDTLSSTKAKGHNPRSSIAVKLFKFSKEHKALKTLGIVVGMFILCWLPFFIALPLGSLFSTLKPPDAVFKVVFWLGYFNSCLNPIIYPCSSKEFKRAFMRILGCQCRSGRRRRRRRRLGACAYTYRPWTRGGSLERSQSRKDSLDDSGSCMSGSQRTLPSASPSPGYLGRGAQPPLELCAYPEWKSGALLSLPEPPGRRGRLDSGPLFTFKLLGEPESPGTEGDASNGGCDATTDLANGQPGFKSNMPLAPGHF
Protocol: (§1) In Table 3, RAT-1 fibroblast cell lines transfected with expression vector alone or derived from transformed foci (α1B ADR or α1B ADR mutant) were selected with G418 (300 μg/ml). Ligand binding was performed on membranes prepared from two clones of each in accordance with known techniques (S. Cotecchia et al., Life Sci. 37, 2389 (1986)). For saturation binding analysis, [^125 ] HEAT concentrations ranged from 10 to 500 pM, nonspecific binding was determined using 1 μM prazosin; in competition experiments, the radioligand concentration was 100 pM. Ligand binding parameters were determined using computerized iterative nonlinear regression analysis (P. Munson, Methods in Enzymol. 92, 5432 (1983)). For assessment of receptor coupling to PI hydrolysis, cells were plated in 30 mm dishes, and labeled overnight with 3 μCi/ml of myo-[2-^3 II(N)]-inositol (1Ci=37 GBq; NEN Research Products) in DMEM containing 3.3% FBS in accordance with known techniques (S. Cotecchia et al., Proc. Natl. Acad. Sci. USA 87, 2896 (1990)). After 40 minute stimulation of cells with 10 μM norepinephrine (NE), inositol phosphates were extracted, and separated on AG 1-X8 anion exchange columns (BioRad Labs) in accordance with known techniques (S. Cotecchia et al., Proc. Natl. Acad. Sci. USA 87, 2896 (1990)). Total inositol phosphates were eluted with 1M ammonium formate/0.1M formic acid. Rmax indicates the percentage increase of total labeled inositol phosphates over basal levels following NE stimulation.

α1B ADR mutant [3] = target: T1, α1B ADR mutant; assay: NE stimulated PI hydrolysis in RAT-1 cell lines expressing the α1B ADR mutant; assay type: cell-based, hamster
Protocol: as §1, with “Rmax indicates the percentage increase of total labeled inositol phosphates over basal levels following NE stimulation.” left out

[4] = test system: RAT-1 fibroblast cell lines expressing the α1B -ADR; assay: cells; settings: 600 h, read-out: final cell density (day 25) relative to control
Protocol: Growth curves of G418 selected RAT-1 fibroblast cell lines transfected with vector alone (A), or expressing the α1B -ADR (B) or α1B -ADR mutant (C) in the absence (------) or presence (---) of norepinephrine (NE). Cells were plated in 100mm dishes at a density of 5×10^5 cells per dish in DMEM containing 5% FBS. After 24 hours, half the dishes received daily supplementation with 10 μM NE, and all dishes were fed with fresh medium every 2-3 days. At each time point, cells were trypsinized and cell counts determined using an electronic particle counter (Coulter Electronics). Values represent the mean of duplicate determinations of a representative experiment, which agree within 6%.
To quantitate receptor-mediated effects on mitogenesis, basal and NE-stimulated growth rates were assessed on cell lines expressing the wild type or mutant α1B -ADRs.

In the case of `NC[C@H](O)c1ccc(O)c(O)c1` [NE, norepinephrine], the “Foci No. +NE” value [1] is reported as 85, the Ki (α1B ADR mutant [2]) is reported as 42 nM and 47 nM and the “NE Stimulated PI Hydrolysis Rmax” value (α1B ADR mutant [3]; 10 μM NE, 40 minute, increase of total labeled inositol phosphates over basal, two clones) is reported as 861 % increase and 954 % increase. The “increase in inositol phosphates induced by NE” value (α1B ADR mutant [3]; cell lines expressing the α1B-ADR mutant) was 900 to 1000% and the fold induction at 10 µM [4] was 1.9.
